Tests used:
Type in all cases: in vivo
[1] = test system: Indica rice; experiment: Post-emergence test experiment, crop selectivity; settings: post-emergence spray, 600 g a.i./ha plus water 450 kg/ha, 3 weeks in greenhouse
Protocol: (§1) The above described growth inhibition rate is fresh weight inhibition rate.
(§2) Post-emergence test experiment: Monocotyledonous and dicotyledonous weed seeds and main crop seeds (i. e. wheat, corn, rice, soybean, cotton, oilseed, millet and sorghum.) were put into a plastic pot loaded with soil. Then covered with 0.5-2 cm soil, the seeds were allowed to grow in good greenhouse environment. The test plants were treated at 2-3 leaf stage 2 weeks after sowing. The test compounds of the invention were dissolved with acetone respectively, then added with tween-80, and using 1.5 liters per hectare of an emulsible concentrate of methyl oleate as a synergist, and diluted by certain amount of water to certain concentration. The solution was sprayed to the plants with a sprayer. Then the plants were cultured for 3 weeks in the greenhouse, and the experiment result of weed controlling effect was listed in tables 3-4.

[2] = test system: Japonica rice; experiment: Post-emergence test experiment, crop selectivity; settings: post-emergence spray, 600 g a.i./ha plus water 450 kg/ha, 3 weeks in greenhouse
Protocol: as §1, §2

[3] = test system: Rice; experiment: Transplanted rice safety evaluation; settings: 1000 g a.i./ha, transplanted 3 leaf stage japonica rice, treated 5 days after transplantation, 21 days after treatment
Protocol: as §1
In addition, the rice field soil that loaded into the 1/1,000,000 ha pot was leveled to keep water storage at 3-4 cm depth. The 3 leaf stage rice (japonica rice) was transplanted at 3 cm of transplanting depth the next day. The compound of the present invention was treated by the same way after 5 days of transplantation.
(§3) The fertility condition of Scirpus juncoides, Sagittaria trifolia and Monochoria vaginalis 14 days after the treatment of the compound of the invention and the fertility condition of rice 21 days after the treatment of the compound of the invention respectively with the naked eye. Evaluate the weed control effect with 0-5 activity standard level.

[4] = test system: Monocotyledonous and dicotyledonous weed seeds and main crop seeds; experiment: Post-emergence test experiment (Table 3, 1000 g a.i./ha); settings: 3 weeks in greenhouse, fresh weight inhibition
Outline: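 Weeds and crops (wheat, corn, rice, soybean, cotton, oilseed, millet, sorghum) grown in soil in the greenhouse and sprayed post-emergence at 2–3 leaf stage, 2 weeks after sowing. Compound in acetone with tween-80 plus methyl oleate emulsible concentrate (1.5 L/ha) as synergist, diluted in water. Fresh weight inhibition scored after 3 weeks.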

[5] = test system: Sagittaria trifolia; experiment: Weed control effect evaluation in rice field; settings: 1000 g a.i./ha, paddy water application at primary leaf stage, 14 days after treatment; weeds resistant to pyrazosulfuron-ethyl and penoxsulam
Excerpt: as §1
(§4) Transplanted rice safety evaluation and weed control effect evaluation in rice field: Rice field soil was loaded into a 1/1,000,000 ha pot. The seeds of Scirpus juncoides, Sagittaria trifolia and Monochoria vaginalis were sowed and gently covered with soil, then left to stand still in greenhouse in the state of 0.5-1 cm of water storage. The tuber of Sagittaria trifolia was planted in the next day or 2 days later. It was kept at 3-4 cm of water storage thereafter. The weeds were treated by dripping the WP or SC water diluents prepared according to the common preparation method of the compounds of the present invention with pipette homogeneously to achieve specified effective amount when Scirpus juncoides, and Monochoria vaginalis reached 0.5 leaf stage and Sagittaria trifolia reached the time point of primary leaf stage.
as §3, with “level. Many compounds show excellent activity and selectivity.” for “level.”

[6] = test system: Scirpus juncoides; experiment: Weed control effect evaluation in rice field; settings: 1000 g a.i./ha, paddy water application at 0.5 leaf stage, 14 days after treatment; weeds resistant to pyrazosulfuron-ethyl and penoxsulam
Excerpt: as §1, §4
as §3, with “level. Many compounds show excellent activity and selectivity.” for “level.”

[7] = test system: Monochoria Vaginalis; experiment: Weed control effect evaluation in rice field; settings: 1000 g a.i./ha, paddy water application at 0.5 leaf stage, 14 days after treatment; weeds resistant to pyrazosulfuron-ethyl and penoxsulam
Excerpt: as §1, §4
as §3, with “level. Many compounds show excellent activity and selectivity.” for “level.”

[8] = test system: Cyperus iria; experiment: Post-emergence test experiment, weed control; settings: post-emergence spray, 600 g a.i./ha plus water 450 kg/ha, 3 weeks in greenhouse
Protocol: as §1, §2

Row | SMILES | Activity level (fresh weight growth inhibition rate), Indica rice [1] | Activity level (fresh weight growth inhibition rate), Japonica rice [2] | Safety, 0-5 activity standard level, Rice [3] | Activity level (growth inhibition rate) Digitaria sanguinalis [4] | Activity level (growth inhibition rate) Echinochloa crusgalli [4] | Activity level (growth inhibition rate) Galium spurium [4] | Activity level (growth inhibition rate) Leptochloa chinensis [4] | Activity level (growth inhibition rate) Monochoria Vaginalis [4] | Activity level (growth inhibition rate) Murdannia triquetra [4] | Activity level (growth inhibition rate) Setaria viridis [4] | Weed control effect, 0-5 activity standard level, Sagittaria trifolia [5] | Weed control effect, 0-5 activity standard level, Scirpus juncoides [6] | Weed control effect, 0-5 activity standard level, Monochoria Vaginalis [7] | Activity level (fresh weight growth inhibition rate), Cyperus iria [8]
1 | COc1ccccc1C(F)=NOC(=O)C(C)Oc1nc(F)c(Cl)c(N)c1Cl (stereo not drawn) [Compound 84] | 0 (Level 0: the growth inhibition rate is less than 5%) | 0 (Level 0: the growth inhibition rate is less than 5%) | 0 (Level 0: the growth inhibition rate is less than 5%) | 5 (Level 5: the growth inhibition rate is greater than 85%) | 5 (Level 5: the growth inhibition rate is greater than 85%) | 5 (Level 5: the growth inhibition rate is greater than 85%) | 5 (Level 5: the growth inhibition rate is greater than 85%) | 5 (Level 5: the growth inhibition rate is greater than 85%) | 5 (Level 5: the growth inhibition rate is greater than 85%) | 5 (Level 5: the growth inhibition rate is greater than 85%) | 4 (Level 4: the growth inhibition rate is equal to or greater than 60% and less than 85%) | 4 (Level 4: the growth inhibition rate is equal to or greater than 60% and less than 85%) | 5 (Level 5: the growth inhibition rate is greater than 85%) | 5 (Level 5: the growth inhibition rate is greater than 85%)
2 | CC(=NOC(=O)C(C)Oc1nc(F)c(Cl)c(N)c1Cl)c1ccc(Cl)cc1 (stereo not drawn) [Compound 70] | 0 (Level 0: the growth inhibition rate is less than 5%) | 0 (Level 0: the growth inhibition rate is less than 5%) | 0 (Level 0: the growth inhibition rate is less than 5%) | 5 (Level 5: the growth inhibition rate is greater than 85%) | 5 (Level 5: the growth inhibition rate is greater than 85%) | 5 (Level 5: the growth inhibition rate is greater than 85%) | 5 (Level 5: the growth inhibition rate is greater than 85%) | 5 (Level 5: the growth inhibition rate is greater than 85%) | 5 (Level 5: the growth inhibition rate is greater than 85%) | 5 (Level 5: the growth inhibition rate is greater than 85%) | 4 (Level 4: the growth inhibition rate is equal to or greater than 60% and less than 85%) | 4 (Level 4: the growth inhibition rate is equal to or greater than 60% and less than 85%) | 5 (Level 5: the growth inhibition rate is greater than 85%) | 5 (Level 5: the growth inhibition rate is greater than 85%)
3 | CCOC(=NOC(=O)C(C)Oc1nc(F)c(Cl)c(N)c1Cl)c1ccc(NC(C)=O)cc1 (stereo not drawn) [Compound 88] | 0 (Level 0: the growth inhibition rate is less than 5%) | 0 (Level 0: the growth inhibition rate is less than 5%) | 0 (Level 0: the growth inhibition rate is less than 5%) | 5 (Level 5: the growth inhibition rate is greater than 85%) | 5 (Level 5: the growth inhibition rate is greater than 85%) | 5 (Level 5: the growth inhibition rate is greater than 85%) | 5 (Level 5: the growth inhibition rate is greater than 85%) | 5 (Level 5: the growth inhibition rate is greater than 85%) | 5 (Level 5: the growth inhibition rate is greater than 85%) | 5 (Level 5: the growth inhibition rate is greater than 85%) | 4 (Level 4: the growth inhibition rate is equal to or greater than 60% and less than 85%) | 4 (Level 4: the growth inhibition rate is equal to or greater than 60% and less than 85%) | 5 (Level 5: the growth inhibition rate is greater than 85%) | 5 (Level 5: the growth inhibition rate is greater than 85%)

Source: patent US12643859B2, “Pyridyl oxycarboxylic acid oxime derivative and preparation method therefor, weeding composition and application thereof” (Qingdao Kingagroot Chemical Compound Co., Ltd., priority 2018, dated 2026)
